From ChEMBL document CHEMBL1145918, “Synthesis, comparative photosensitizing efficacy, human serum albumin (site II) binding ability, and intracellular localization characteristics of novel benzobacteriochlorins derived from vic-dihydroxybacteriochlorins” (J Med Chem, 2003)

Target: Albumin (Homo sapiens, UniProt P02768)
Assay: Compound was tested for its binding ability to site II of Human serum albumin (HSA) expressed as binding constant

Sequence of Albumin (P02768 whole entry): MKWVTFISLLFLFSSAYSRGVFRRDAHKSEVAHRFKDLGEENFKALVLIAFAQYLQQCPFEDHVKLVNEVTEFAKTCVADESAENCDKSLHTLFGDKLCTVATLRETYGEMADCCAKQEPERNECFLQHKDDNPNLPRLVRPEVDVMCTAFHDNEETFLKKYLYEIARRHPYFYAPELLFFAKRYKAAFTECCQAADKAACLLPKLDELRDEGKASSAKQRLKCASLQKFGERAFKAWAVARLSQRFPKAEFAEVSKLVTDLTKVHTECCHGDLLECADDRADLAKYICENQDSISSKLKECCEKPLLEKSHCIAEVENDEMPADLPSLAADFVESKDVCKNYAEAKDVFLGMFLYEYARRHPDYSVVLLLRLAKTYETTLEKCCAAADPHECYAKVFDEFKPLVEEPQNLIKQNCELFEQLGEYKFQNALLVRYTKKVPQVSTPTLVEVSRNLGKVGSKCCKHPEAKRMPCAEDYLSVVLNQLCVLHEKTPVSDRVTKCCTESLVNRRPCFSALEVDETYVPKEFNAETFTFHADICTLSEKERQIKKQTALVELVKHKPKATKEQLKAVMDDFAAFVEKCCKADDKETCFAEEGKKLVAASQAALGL

| K [M⁻¹] | SMILES |
| --- | --- |
| 14400000 | CCc1c(C)c2cc3nc(c(C(=O)OC)c4nc(cc5[nH]c(cc1[nH]2)C1(C)C5=CC=C(C(=O)OC)C1C(=O)OC)C(C)=C4C(=O)OC)[C@@H](CCC(=O)OC)[C@@H]3C (stereo not given in full) |
| 16000000 | CCc1c(C)c2cc3nc(c4c5nc(cc6[nH]c(cc1[nH]2)C1(C)C6=CC=C(C(=O)OC)C1C(=O)OC)C(C)=C5C(=O)N(Cc1cc(C(F)(F)F)cc(C(F)(F)F)c1)C4=O)[C@@H](CCC(=O)OC)[C@@H]3C (stereo not given in full) |
| 17500000 | CCc1c(C)c2cc3nc(c(CC(=O)OC)c4nc(cc5[nH]c(cc1[nH]2)C1(C)C5=CC=C(C(=O)OC)C1C(=O)OC)C(C)=C4C(=O)OC)[C@@H](CCC(=O)OC)[C@@H]3C (stereo not given in full) |

Further lines, the molecule ahead of its results:

| SMILES | K [M⁻¹] |
| --- | --- |
| CCc1c(C)c2cc3nc(c4c5nc(cc6[nH]c(cc1[nH]2)C1(C)C6=CC=C(C(=O)OC)C1C(=O)OC)C(C)=C5C(=O)C4)[C@@H](CCC(=O)OC)[C@@H]3C (stereo not given in full) | 10600000 |
| CCCCCCN1C(=O)C2=C(C)c3cc4[nH]c(cc5[nH]c(cc6nc(c(c2n3)C1=O)[C@@H](CCC(=O)OC)[C@@H]6C)c(C)c5CC)C1(C)C4=CC=C(C(=O)OC)C1C(=O)OC (stereo not given in full) | 16100000 |
